In PMC10179701, “Towards Protection of Nucleic Acids from Herbicide Attack: Self-Assembly of Betaines Based on Pillar[5]arene with Glyphosate and DNA” (International Journal of Molecular Sciences, 2023):
Values joined by “and” are separate entries in the source; they are usually repeats but may differ in a detail not shown here. Equal entries are not always repeated.

What was measured:
LEC cells [1] = assay: Apoptosis induction by flow cytometry (DiOC6/PI), LEC cells; assay type: cell-based, cow; details: 25 μg/mL, 24 h
Description: (§1) The cytotoxic effect of pillar[5]arene 2 containing ester fragments of phenylalanine is probably due to the stable aggregates’ formation (Table 1). […] The agent concentration of 25 μg/mL was chosen for the experiment. […] The apoptosis-inducing effect of compound 2 on A549 and LEC cells turned out approximately the same. […]
(§2) buffer solution. The UV spectra of the solutions were then recorded. The stability constant of complex was calculated by Bindfit. Three independent experiments were carried out for each series. […]
(§3) volume of 3 mL with Tris‐HCl buffer solution. The UV spectra of the solutions were then recorded. The stability constant of each complex was calculated by Bindfit. Three independent experiments were carried […]
(§4) stability constant of complex was calculated by Bindfit. Three independent experiments were carried out […]
(§5) humidified atmosphere with 5% CO2 at 37 °C. […]
(§6) fresh one with the addition of the test substances.
(§7) Then, the medium was aspirated from the wells and 100 μL of dimethyl sulfoxide was added. […]
(§8) the formazan crystals to dissolve.
(§9) BD FACSCanto II flow cytometer. […]
(§10) humidified atmosphere with 5% CO2. […]
(§11) substances. […] After 24 h of incubation cells were […]

LEC cells [2] = assay: MTT test, LEC cells
Description: (§12) The next stage of this work was the study of pillar[5]arenes 1–4 ability to inhibit the viability and proliferative activity of embryonic lung epithelial (LEC) and human lung adenocarcinoma (A549) cells using the MTT test.
(§13) Further, the ability of GIS to inhibit the viability and proliferative activity of LEC and A549 cells was studied by the MTT test. […] The average inhibitory concentration (IC50) was calculated for GIS (Table 3). […]
(§14) 1.6. Cytotoxicity of pillar[5]arenes 1–4, GIS and their mixtures on A549 and LEC Cell Lines […]
(§15) activity of LEC cells and A549 cells was investigated using the MTT test according to [2]. A549 – human alveolar adenocarcinoma cell line (ATCC, Rockville, Maryland, USA) and cow embryo lung epithelial (LEC) cells (Animal Cell Culture Collection of Russian Academy of Agricultural Science, Kazan, Russia) were cultured in DMEM (GIBCO, Waltham, MA, USA) medium supplemented with 10% serum and 100 units/mL of penicillin (PanEco, Moscow, Russia) and streptomycin (PanEco, Moscow, Russia) in a humidified atmosphere with 5% CO2 at 37 °C. Cells were seeded in 96‐well plates at a concentration of 10^4 cells/well. After 24 h of cultivation, the medium was removed from the wells and replaced with a fresh one with the addition of the test substances. The volume of the culture medium in the wells was 100
(§16) μL. After 24 h incubation of cells in the presence of substances, the medium in the wells was replaced with a fresh one containing MTT reagent at a final concentration of 0.5 mg/mL. The cells were incubated with MTT for 4 h at 37 °C in an atmosphere of 5% CO2. Then, the medium was aspirated from the wells and 100 μL of dimethyl sulfoxide was added. Probes were incubated at 37 °C for 15 min in the dark for the formazan crystals to dissolve. The optical density of the formazan solution in the wells was measured using a plate reader (BioRad xMarkTM Microplate Spectrophotometer, USA) at a wavelength of 570 nm.
(§17) Three series of experiments were carried out with at least 8 replications for each variant in the series. […]

[3] = Dynamic light scattering of macrocycle aggregates in water; assay type: physicochemical; details: H2O, 298 K
Description: The next stage of the work was the study of aggregation properties of both previously synthesized ester derivatives of amino acids 1 and 2, and macrocyclic betaine derivatives 3 and 4 by dynamic light scattering (DLS). The study was carried out in water in the 1 × 10^–6–1 × 10^–4 M concentration range (Figures S11–S22). The size of associates increases with decreasing macrocycle 1 concentration in solution (Table 1). A different pattern is observed for betaine derivative 3. Thus, the particles become coarser, and the polydispersity index (PDI) of the systems increased with an increase in compound 3 concentration, which is probably due to the formation of β-sheets by oligopeptide substituents. The presence of two oppositely charged fragments in one substituent leads to the fact that compound 3 becomes similar to surfactant molecules in terms of its aggregation properties.

A549 cells [4] = assay: MTT test, A549 cells
Description: as §12, §13, §14, §15, §16, §17

[5] = Transmission electron microscopy of aggregates; assay type: physicochemical; details: 1 × 10^−4 M in water
Text: The nanosized aggregates formed by macrocycle 2 were studied by transmission electron microscopy (TEM). The formation of the spherical nanosized particles with sizes close to those determined by DLS was confirmed.

[6] = Dynamic light scattering of (macrocycle-DNA)-GIS associates in Tris-HCl buffer; assay type: physicochemical; details: CPA 3 × 10^–6 M, CDNA 2.5 × 10^–7 M, CGIS 3 × 10^–6 M
Text: The obtained (macrocycle-DNA)-GIS associates were also studied by DLS in Tris-HCl buffer solution. The concentration of each component of the mixture was the same as in the experiments performed by UV-Vis spectroscopy (CPA = 3 × 10^–6 M, CDNA = 2.5 × 10^–7 M, CGIS = 3 × 10^–6 M). The formation of the stable aggregates (d = 183 ± 5 nm, PDI = 0.19, and ζ = –22.2 mV) was found only for the system based on macrocycle 2 with phenylalanine ester fragments (Figure S33). […] This, apparently, leads to the formation of stable aggregates in the case of the three-component (macrocycle-DNA)-GIS systems. The associate’s formation for three-component (2–DNA)–GIS system was additionally confirmed by TEM (Figure 8). It was shown that spherical nanosized particles with sizes close to those determined by DLS are formed.

A549 cells [7] = assay: MTT assay, combined action of macrocycles with GIS on A549 cells; assay type: cell-based, human; details: A549, pillararene 1 × 10^–5 M with GIS 3.47 × 10^–2 M
Description: The ability to inhibit the viability and proliferative activity of A549 cells of macrocycles 1–4 in the presence of GIS was studied using the MTT assay. […] The developed approach opens up the possibility of creating pillar[5]arene-based herbicide antidotes. […]
as §6
Then, the medium was aspirated from the wells
and 100 μL of dimethyl sulfoxide was added.
the formazan crystals to dissolve. […]
as §11

A549 cells [8] = assay: Apoptosis induction by flow cytometry (DiOC6/PI), A549 cells; assay type: cell-based, human; details: A549, 25 μg/mL, 24 h
Description: as §1, §2, §3, §4, §5, §6, §7, §8, §9, §10, §11

Which results are given for `CCOC(=O)[C@H](Cc1ccccc1)NC(=O)C[N+](C)(C)CCCNC(=O)COc1cc2c(OCC(=O)NCCC[N+](C)(C)CC(=O)N[C@@H](Cc3ccccc3)C(=O)OCC)cc1Cc1cc(OCC(=O)NCCC[N+](C)(C)CC(=O)N[C@@H](Cc3ccccc3)C(=O)OCC)c(cc1OCC(=O)NCCC[N+](C)(C)CC(=O)N[C@@H](Cc1ccccc1)C(=O)OCC)Cc1cc(OCC(=O)NCCC[N+](C)(C)CC(=O)N[C@@H](Cc3ccccc3)C(=O)OCC)c(cc1OCC(=O)NCCC[N+](C)(C)CC(=O)N[C@@H](Cc1ccccc1)C(=O)OCC)Cc1cc(OCC(=O)NCCC[N+](C)(C)CC(=O)N[C@@H](Cc3ccccc3)C(=O)OCC)c(cc1OCC(=O)NCCC[N+](C)(C)CC(=O)N[C@@H](Cc1ccccc1)C(=O)OCC)Cc1cc(OCC(=O)NCCC[N+](C)(C)CC(=O)N[C@@H](Cc3ccccc3)C(=O)OCC)c(cc1OCC(=O)NCCC[N+](C)(C)CC(=O)N[C@@H](Cc1ccccc1)C(=O)OCC)C2.[Br-].[Br-].[Br-].[Br-].[Br-].[Br-].[Br-].[Br-].[Br-].[Br-]` [Compound 2]?
proportion of living cells (Live, percentage of stained cells) (LEC cells [1]): 72.7%; concentration at which viability was reduced (LEC cells [2]): ≥ 5000 ng/mL; IC50 (LEC cells [2]; MTT, 24 h): 28.16 µg/mL; polydispersity index (PDI) ([3]; 1 × 10^–4 M): 0.24; size of aggregates d ([3]; 1 × 10^–4 M): 179 nm and 179 ± 8 nm; zeta potential ζ ([3]; 1 × 10^–4 M): +15.9 mV; polydispersity index (PDI) ([3]; 1 × 10^–5 M): 0.21; size of aggregates d ([3]; 1 × 10^–5 M): 157 ± 2 nm; zeta potential ζ ([3]; 1 × 10^–5 M): +31.6 mV; polydispersity index (PDI) ([3]; 1 × 10^–6 M): 0.28; size of aggregates d ([3]; 1 × 10^–6 M): 144 nm and 144 ± 7 nm; zeta potential ζ ([3]; 1 × 10^–6 M): +12.5 mV; concentration at which viability was reduced (A549 cells [4]; A549): ≥ 5000 ng/mL; IC50 (A549 cells [4]; A549, MTT, 24 h): 29.67 µg/mL; average diameter of particles (TEM) [5]: 50 nm; PDI of three-component (macrocycle-DNA)-GIS system [6]: 0.19; size of aggregates d of three-component (macrocycle-DNA)-GIS system [6]: 183 ± 5 nm; zeta potential ζ of three-component (macrocycle-DNA)-GIS system [6]: –22.2 mV; change of toxicity on combined action with GIS (A549 cells [7]): increase in toxicity; proportion of living cells (Live, percentage of stained cells) (A549 cells [8]): 74.8%
